In general, IC50 refers to the midpoint of a concentration-inhibition curve. A word on the inhibition: it is how much of the control response was suppressed.

Format in all cases: cell-based
One assay concerns the target T1, Toll-like receptor 9 (Homo sapiens, UniProt Q9NR96).
T1 sequence (Q9NR96 whole entry): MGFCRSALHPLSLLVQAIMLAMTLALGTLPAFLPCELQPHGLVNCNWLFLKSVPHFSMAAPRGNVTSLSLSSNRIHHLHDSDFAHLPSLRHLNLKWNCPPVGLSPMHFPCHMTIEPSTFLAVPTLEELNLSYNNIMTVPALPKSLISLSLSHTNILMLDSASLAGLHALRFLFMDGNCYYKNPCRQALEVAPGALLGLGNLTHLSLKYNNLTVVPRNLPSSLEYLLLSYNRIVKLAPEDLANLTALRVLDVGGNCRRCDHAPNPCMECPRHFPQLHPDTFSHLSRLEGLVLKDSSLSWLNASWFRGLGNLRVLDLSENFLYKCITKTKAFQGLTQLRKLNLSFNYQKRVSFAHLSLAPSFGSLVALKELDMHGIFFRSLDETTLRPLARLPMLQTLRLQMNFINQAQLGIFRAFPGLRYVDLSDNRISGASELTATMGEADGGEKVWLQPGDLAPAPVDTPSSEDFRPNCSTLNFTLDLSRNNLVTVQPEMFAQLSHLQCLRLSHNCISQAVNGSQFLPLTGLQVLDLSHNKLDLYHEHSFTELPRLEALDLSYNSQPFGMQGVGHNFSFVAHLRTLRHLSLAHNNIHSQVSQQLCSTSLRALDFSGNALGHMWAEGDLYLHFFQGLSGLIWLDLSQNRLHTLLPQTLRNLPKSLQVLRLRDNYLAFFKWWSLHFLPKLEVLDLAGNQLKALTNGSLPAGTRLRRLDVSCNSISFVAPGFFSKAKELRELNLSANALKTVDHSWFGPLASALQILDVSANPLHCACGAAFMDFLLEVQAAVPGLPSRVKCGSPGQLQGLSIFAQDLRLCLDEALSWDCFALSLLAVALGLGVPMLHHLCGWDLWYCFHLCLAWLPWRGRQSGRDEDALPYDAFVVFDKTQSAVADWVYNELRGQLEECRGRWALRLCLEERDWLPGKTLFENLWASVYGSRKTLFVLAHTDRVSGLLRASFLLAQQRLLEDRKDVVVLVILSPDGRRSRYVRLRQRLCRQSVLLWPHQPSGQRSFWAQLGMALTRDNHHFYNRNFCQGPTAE
Description: Antagonist activity at human TLR9 overexpressed in HEK-Blue cells assessed as inhibition of ODN2006-induced NFkappaB and AP-1 activation preincubated for 30 mins followed by ODN2006 stimulation measured after 22 hrs by quanti-blue SEAP assay.

The target of another assay is T2, Toll-like receptor 7 (Homo sapiens, UniProt Q9NYK1).
T2 sequence (Q9NYK1 whole entry): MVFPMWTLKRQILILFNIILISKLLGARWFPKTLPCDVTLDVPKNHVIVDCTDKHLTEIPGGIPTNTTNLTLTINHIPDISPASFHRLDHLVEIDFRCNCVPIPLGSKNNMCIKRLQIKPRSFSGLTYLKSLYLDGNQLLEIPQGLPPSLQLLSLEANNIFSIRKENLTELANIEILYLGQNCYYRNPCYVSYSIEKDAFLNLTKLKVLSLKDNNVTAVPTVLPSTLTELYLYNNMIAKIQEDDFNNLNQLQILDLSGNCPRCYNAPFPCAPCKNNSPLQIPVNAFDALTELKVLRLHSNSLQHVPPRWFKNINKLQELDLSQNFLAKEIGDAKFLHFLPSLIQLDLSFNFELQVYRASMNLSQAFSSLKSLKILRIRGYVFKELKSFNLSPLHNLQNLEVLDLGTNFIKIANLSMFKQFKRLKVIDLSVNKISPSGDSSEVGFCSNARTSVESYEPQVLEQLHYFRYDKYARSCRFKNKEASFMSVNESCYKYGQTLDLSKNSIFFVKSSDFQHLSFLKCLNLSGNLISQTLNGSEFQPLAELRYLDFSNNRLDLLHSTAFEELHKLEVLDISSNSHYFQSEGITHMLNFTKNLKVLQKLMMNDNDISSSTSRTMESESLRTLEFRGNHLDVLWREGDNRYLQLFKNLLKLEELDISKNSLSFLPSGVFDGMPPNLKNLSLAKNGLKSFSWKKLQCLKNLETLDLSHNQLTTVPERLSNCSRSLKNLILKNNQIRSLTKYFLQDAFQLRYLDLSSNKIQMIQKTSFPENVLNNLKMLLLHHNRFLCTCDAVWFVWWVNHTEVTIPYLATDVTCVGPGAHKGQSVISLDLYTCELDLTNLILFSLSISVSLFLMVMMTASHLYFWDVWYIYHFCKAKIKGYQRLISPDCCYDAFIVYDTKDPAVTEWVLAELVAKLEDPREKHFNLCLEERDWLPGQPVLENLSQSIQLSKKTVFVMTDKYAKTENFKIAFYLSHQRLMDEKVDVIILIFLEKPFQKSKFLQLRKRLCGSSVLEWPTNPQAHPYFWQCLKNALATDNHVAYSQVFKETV
The experiment in a line: Antagonist activity at human TLR7 overexpressed in HEK-Blue cells assessed as inhibition of gardiquimod-induced NFkappaB and AP-1 activation preincubated for 30 mins followed by gardiquimod stimulation measured after 22 hrs by quanti-blue SEAP assay.

For assay [1], the target named is T3, Toll-like receptor 9 (Homo sapiens) (UniProt Q9NR96).
T3 sequence (whole entry): T1 sequence (Q9NR96 whole entry)
Description: Antagonist activity at human TLR9 overexpressed in HEK-Blue cells assessed as inhibition of ODN2006-induced NFkappaB and AP-1 activation at 10 uM preincubated for 30 mins followed by ODN2006 stimulation measured after 22 hrs by quanti-blue SEAP assay relative to control.

Another assay addresses Toll-like receptor 4 (Homo sapiens, UniProt O00206). The experiment in a line: Antagonist activity at human TLR4 overexpressed in HEK-Blue cells assessed as inhibition of […] induced NFkappaB and AP-1 activation preincubated for 30 mins followed by […] stimulation measured after 22 hrs by quanti-blue SEAP assay.
The next assay has as its target T4, Toll-like receptor 3 (Homo sapiens, UniProt O15455).
T4 sequence (O15455 whole entry): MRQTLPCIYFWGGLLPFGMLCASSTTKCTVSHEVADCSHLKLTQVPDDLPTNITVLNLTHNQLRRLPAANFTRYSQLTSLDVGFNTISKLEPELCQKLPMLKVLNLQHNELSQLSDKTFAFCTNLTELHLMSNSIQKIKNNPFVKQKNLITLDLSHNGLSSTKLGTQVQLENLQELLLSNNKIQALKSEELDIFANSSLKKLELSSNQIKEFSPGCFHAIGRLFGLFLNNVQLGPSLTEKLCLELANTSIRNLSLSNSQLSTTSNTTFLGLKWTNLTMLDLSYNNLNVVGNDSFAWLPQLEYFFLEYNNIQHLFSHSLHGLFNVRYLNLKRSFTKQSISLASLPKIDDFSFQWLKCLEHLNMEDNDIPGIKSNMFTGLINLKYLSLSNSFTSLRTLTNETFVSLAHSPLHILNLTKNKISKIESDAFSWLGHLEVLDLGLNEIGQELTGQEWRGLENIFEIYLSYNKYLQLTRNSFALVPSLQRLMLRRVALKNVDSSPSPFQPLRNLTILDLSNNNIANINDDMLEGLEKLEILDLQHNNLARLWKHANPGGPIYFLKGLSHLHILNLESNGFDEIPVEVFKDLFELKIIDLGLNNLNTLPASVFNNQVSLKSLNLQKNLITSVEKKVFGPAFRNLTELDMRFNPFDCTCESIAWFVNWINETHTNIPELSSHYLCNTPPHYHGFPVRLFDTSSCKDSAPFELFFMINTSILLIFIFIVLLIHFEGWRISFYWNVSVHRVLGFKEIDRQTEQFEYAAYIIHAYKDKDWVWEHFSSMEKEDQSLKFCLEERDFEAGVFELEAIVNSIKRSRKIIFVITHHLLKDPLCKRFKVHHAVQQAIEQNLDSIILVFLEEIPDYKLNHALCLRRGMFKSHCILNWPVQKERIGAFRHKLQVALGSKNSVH
The experiment in a line: Antagonist activity at human TLR3 overexpressed in HEK-Blue cells assessed as inhibition of Poly IC-induced NFkappaB and AP-1 activation preincubated for 30 mins followed by Poly IC stimulation measured after 22 hrs by quanti-blue SEAP assay.

Toll-like receptor 4, sequence (O00206 whole entry): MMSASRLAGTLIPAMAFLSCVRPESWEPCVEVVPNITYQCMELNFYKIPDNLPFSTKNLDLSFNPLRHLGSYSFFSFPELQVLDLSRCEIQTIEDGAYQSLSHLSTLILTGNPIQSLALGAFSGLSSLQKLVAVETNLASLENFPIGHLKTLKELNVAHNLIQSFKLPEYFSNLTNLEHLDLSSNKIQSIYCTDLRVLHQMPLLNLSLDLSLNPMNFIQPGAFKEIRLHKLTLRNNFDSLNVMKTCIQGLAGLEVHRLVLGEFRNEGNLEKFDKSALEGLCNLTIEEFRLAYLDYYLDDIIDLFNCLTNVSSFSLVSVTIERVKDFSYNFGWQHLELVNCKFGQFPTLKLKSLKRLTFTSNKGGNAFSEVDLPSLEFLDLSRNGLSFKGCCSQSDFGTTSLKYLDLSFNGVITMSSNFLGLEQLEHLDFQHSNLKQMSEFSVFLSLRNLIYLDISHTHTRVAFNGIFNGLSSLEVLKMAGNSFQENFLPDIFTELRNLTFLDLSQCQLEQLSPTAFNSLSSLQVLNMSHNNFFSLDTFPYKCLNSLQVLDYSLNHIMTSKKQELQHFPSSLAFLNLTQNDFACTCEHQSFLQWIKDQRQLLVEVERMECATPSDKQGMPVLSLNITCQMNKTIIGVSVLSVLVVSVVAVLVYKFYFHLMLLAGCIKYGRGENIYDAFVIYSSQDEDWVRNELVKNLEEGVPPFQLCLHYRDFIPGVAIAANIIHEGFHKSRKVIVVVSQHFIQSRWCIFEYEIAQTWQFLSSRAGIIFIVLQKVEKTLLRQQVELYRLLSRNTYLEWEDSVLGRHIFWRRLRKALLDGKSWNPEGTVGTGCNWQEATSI

Consider `CNCCN1CCC(c2ccc3[nH]c(-c4cccc(OC)c4OC)c(C)c3c2)CC1`, for which the IC50 was 2200 nM at Toll-like receptor 9 and above 10000 nM on Toll-like receptor 7.
With `CNCCN1CCC(c2ccc3[nH]c(-c4ccc5c(c4)OCO5)c(C)c3c2)CC1`, the figures for the concentration for half-maximal inhibition (IC50) on Toll-like receptor 9 and at Toll-like receptor 7 were 1200 nM and 650 nM, respectively.
`CNCCN1CCC(c2ccc3[nH]c(-c4ccccc4OC)c(F)c3c2)CC1`: the inhibition in assay [1] was below 5%. For the same compound, the IC50 on Toll-like receptor 9 came to 23300 nM; on Toll-like receptor 7, 610 nM.
For `CNCCN1CCC(c2ccc3[nH]c(-c4ccccc4C)c(C)c3c2)CC1`, the IC50 on Toll-like receptor 9 was 2140 nM; at Toll-like receptor 7, above 10000 nM.
Take `COc1ccc(-c2[nH]c3ccc(C4CCNCC4)cc3c2C)cc1OC`: the IC50 at Toll-like receptor 9 is 4850 nM.
In the case of `CNCCCN1CCC(c2ccc3[nH]c(-c4ccc(OC)c(OC)c4)c(C)c3c2)CC1`, the IC50 worked out at 550 nM at Toll-like receptor 9 and 790 nM at Toll-like receptor 7.
On the same counts, the results for `CNCCN1CCC(c2ccc3[nH]c(-c4cccc(OC)c4)c(C)c3c2)CC1` are 1870 nM and 6170 nM.
In the case of `CNCCN1CCC(c2ccc3[nH]c(-c4ccc(OC)cc4)c(C)c3c2)CC1`, the IC50 worked out at 500 nM on Toll-like receptor 9 and 5460 nM at Toll-like receptor 7.
On the same counts, the results for `CNCCN1CCC(c2ccc3[nH]c(-c4cccc(C#N)c4)c(C)c3c2)CC1` are 460 nM and above 10000 nM.
For the compound `CNCCN1CCC(c2ccc3[nH]c(-c4ccccc4OC)c(C)c3c2)CC1`, the figures for the half-inhibitory concentration (IC50) at Toll-like receptor 9 and at Toll-like receptor 7 were 1100 nM and above 10000 nM, respectively.
Take `CNCCN1CCC(c2ccc3[nH]c(-c4ccc(C#N)cc4)c(C)c3c2)CC1`: the IC50 at Toll-like receptor 9 was 520 nM.
Take `CNCCN1CCC(c2ccc3[nH]c(-c4ccc(OC)cc4OC)c(C)c3c2)CC1`: the values for the IC50 on Toll-like receptor 9 and at Toll-like receptor 7 were 2330 nM and above 10000 nM, respectively.
Take `CNCCN1CCC(c2ccc3[nH]c(-c4ccccc4C#N)c(C)c3c2)CC1`: the IC50 on Toll-like receptor 9 is 600 nM; on Toll-like receptor 7, above 10000 nM.
On the same counts, the results for `CNCCN1CCC(c2ccc3[nH]c(-c4ccc(C)cc4)c(C)c3c2)CC1` are 5390 nM and above 10000 nM.
`CNCCN1CCC(c2ccc3[nH]c(-c4ccc(OC)c(OC)c4)c(Cl)c3c2)CC1`: the IC50 on Toll-like receptor 9 is 430 nM.
The same measure, in the same setting: in the case of `CNCCN1CCC(c2ccc3[nH]c(-c4ccccc4Cl)c(F)c3c2)CC1` it was 21700 nM.
On to `CNCCN1CCC(c2ccc3[nH]c(-c4ccc(C(N)=O)cc4)c(C)c3c2)CC1`, for which the IC50 on Toll-like receptor 9 is 270 nM; at Toll-like receptor 7 it was 16600 nM.
On the same counts, the results for `COc1ccc(-c2[nH]c3ccc(C4CCN(CC5CCCCN5C)CC4)cc3c2C)cc1OC` (stereo not given) are 740 nM and 850 nM.
`CNCCN1CCC(c2ccc3[nH]c(-c4ccc(OC)c(OC)c4)c(C)c3c2)CC1`: the IC50 was 15000 nM on Toll-like receptor 4, 430 nM on Toll-like receptor 9, 250 nM at Toll-like receptor 7 and 2160 nM at Toll-like receptor 3.
For `CNCCN1CCC(c2ccc3[nH]c(-c4ccc(OC)c(OC)c4)c(CC(F)(F)F)c3c2)CC1`, the IC50 worked out at 750 nM on Toll-like receptor 9 and 70 nM at Toll-like receptor 7.
`CNCCN1CCC(c2ccc3[nH]c(-c4ccccc4)c(C)c3c2)CC1`: the IC50 is 1800 nM on Toll-like receptor 9 and above 10000 nM at Toll-like receptor 7.
The corresponding values for `CNCCN1CCC(c2ccc3[nH]c(-c4cccc(C)c4)c(C)c3c2)CC1` are 2620 nM and above 10000 nM.
For `CCc1c(-c2ccc(OC)c(OC)c2)[nH]c2ccc(C3CCN(CCNC)CC3)cc12`, on Toll-like receptor 7, the IC50 amounted to 130 nM.
Still for that read-out and setting: in the case of `COc1ccc(-c2[nH]c3ccc(C4CCN(C5CCN(C)CC5)CC4)cc3c2C)cc1OC` it was 730 nM; in that of `COc1ccc(-c2[nH]c3ccc(C4CCN(Cc5cnc(C)[nH]5)CC4)cc3c2C)cc1OC`, 3490 nM.
Take `COc1ccc(-c2[nH]c3ccc(C4CCN(Cc5cncn5C)CC4)cc3c2C)cc1OC`: the IC50 at Toll-like receptor 9 is 2710 nM; on Toll-like receptor 7 it was 920 nM.
Regarding `CCOc1cc(-c2[nH]c3ccc(C4CCN(CCNC)CC4)cc3c2C)ccc1OC(C)C`, the IC50 at Toll-like receptor 9 stood at 1660 nM.
Regarding `COc1ccc(-c2[nH]c3ccc(C4CCN(C(C)=O)CC4)cc3c2C)cc1OC`, the IC50 on Toll-like receptor 9 is above 50000 nM; at Toll-like receptor 7 it was 1310 nM.
Consider `COc1ccc(-c2[nH]c3ccc(C4CCN(Cc5ccncc5)CC4)cc3c2C)cc1OC`, for which the IC50 at Toll-like receptor 9 came out at 3360 nM.
The same measure, in the same setting: with `COc1ccc(-c2[nH]c3ccc(C4CCN(C5CNC5)CC4)cc3c2C)cc1OC` the figure was 2340 nM; with `COc1ccc(-c2[nH]c3ccc(C4CCN(Cc5nccn5C)CC4)cc3c2C)cc1OC`, 850 nM.
Regarding `CNCCN1CCC(c2ccc3[nH]c(-c4ccc(OC)c(OC)c4)c(C#N)c3c2)CC1`, at Toll-like receptor 7, the IC50 is above 10000 nM.
